{"source": "patent US20260286302A1", "about": "“METHODS FOR PRODUCING A SUPER CENTRAL MEMORY CD8 T CELL SUBTYPE BY POLY(ADP-RIBOSE) POLYMERASE (PARP) INHIBITION AND USES THEREOF” (Georgetown University, priority 2023, published 2026)", "key": {"WT CD8 T cells": {"test_system": "WT CD8 T cells", "test": "WT CD8 T cells activated with anti-CD3/CD28", "type": "cell-based, mouse", "details": "anti-CD3/CD28 activation in the presence of PARPi, 48 h"}, "pMel-1 CD8 T cells [1]": {"test_system": "pMel-1 CD8 T cells", "test": "Seahorse assays (OCR, ECAR)", "type": "cell-based, mouse", "details": "PARPi-induced TCM^sup vs gp100-induced TCM", "protocol": "CD8 T cells were activated with gp100 peptide with/without PARPi for 48 h, followed by mitochondrial stress tests (SeaHorse Bioscience), performed as per the manufacturer's specifications. OCR and ECAR were measured with an XFp flux analyzer (Seahorse Bioscience). For all assays, 160,000 cell per ml were plated onto culture plates using Cell-Tak (BD Biosciences). OCR and ECAR were measured in unbuffered DMEM (Agilent Biotechnologies) supplemented with 10 mM D-glucose (Sigma-Aldrich), 10 mM L-glutamine and 2.5 mM pyruvate, as indicated. The rates of FAO were determined in variously treated cells, as described above, using a Seahorse XF Palmitate-BSA FAO Reagent kit, used according to the manufacturer's instructions (Agilent Biotechnologies)."}, "TC-1": {"test_system": "TC-1", "test": "Tumor growth in immune deficient nude mice (TC-1)", "type": "in vivo, mouse", "details": "TC-1 in immune deficient nude mice", "protocol": "The effect of PARPi on direct CD8 T cell-driven anti-tumor immune response remains poorly understood. Therefore, to dissect this effect, the anti-tumor immune effect of PARPi was tested in vivo in tumor models that require T cell priming, which helps delineate the direct effect of the drug on CD8 T cells. […] While 18% and 10% of mice survived in the vaccine-treated and PARPi-treated groups, respectively, in the TC-1 tumor model at day 22, 90% survived when PARPi was added to the vaccine. Similarly, in the B16F10 tumor model, 10% of the mice treated with vaccine alone were alive at day 22, compared to 40% when PARPi was added."}, "SIRT-1/FOXO1": {"test_system": "SIRT-1/FOXO1", "test": "SIRT-1/FOXO1 signaling, Western blot and immunofluorescence", "type": "cell-based, mouse", "protocol": "pMel-1 CD8 T cells were activated with gp100 in the presence or absence of PARPi for 48 h containing glass coverslips. Cells were then washed with PBS (Mg^+ca^+), fixed for 5 min with 4% PFA and permeabilized in PBS/triton 1×. […] Finally, DAPI staining was applied. Images were acquired with a Leica TCS-SP5II upright confocal microscope (Leica Microsystems)."}, "pMel-1 CD8 T cells [2]": {"test_system": "pMel-1 CD8 T cells", "test": "RT-PCR gene expression in TCM^sup versus TCM", "type": "cell-based, mouse", "details": "TCM^sup vs gp100-induced TCM", "text": "Total RNA was extracted from gp100 or gp100 plus PARPi-activated CD8 T cells using the RNeasy Mini Kit (Qiagen, catalog no. 74004) following the manufacturer's instructions. The extraction included a digestion step with DNase I to prevent subsequent amplification of genomic DNA. One μg total RNA was subjected to single-strand complementary DNA synthesis using High-Capacity cDNA Reverse Transcription Kit (Thermo Fisher, catalog no. 4368814). The Taqman® gene expression assay from Applied Biosystems was used for qrtPCR, and primer pairs (catalog no. 4331182) from Applied Biosystems were used to detect gene expression of Eomes (#Mm01351984-m1), Acot1 (#Mm0162271-S1), Cpt1a (#Mm0123183-m1), Klf2 (#Mm00500486-g1), CD62L (#Mm00441291-m1),CCR7 (#Mm99999130-s1), and Cdkn1b (#Mm00438168-m1). Data were procured using StepOnePlus Real-Time PCR System from Applied Biosystems and normalized to the geometric mean of the housekeeping gene beta-actin (β-actin) (#Mm02619580-g1)."}}, "data": [{"compound": "O=C(c1cc(Cc2n[nH]c(=O)c3ccccc23)ccc1F)N1CCN(C(=O)C2CC2)CC1", "note": "[olaparib]", "values": [{"measurement": "generation of the CD44hiCD62Lhi population", "setting": "WT CD8 T cells", "result": "also seen"}, {"measurement": "extracellular acidification rate (ECAR; Glycolysis)", "setting": "pMel-1 CD8 T cells [1]", "result": "decrease"}, {"measurement": "oxygen consumption rate (OCR; OXPHOS)", "setting": "pMel-1 CD8 T cells [1]", "result": "significant increase"}, {"measurement": "tumor growth", "setting": "TC-1", "result": "did not affect tumor growth"}, {"measurement": "FOXO1 acetylation", "setting": "SIRT-1/FOXO1; PARPi-treated CD8 T cells", "result": "decrease"}, {"measurement": "SIRT-1 expression and activity", "setting": "SIRT-1/FOXO1; activated pMel-1 CD8 T cells", "result": "increased"}, {"measurement": "FOXO1 in the nucleus", "setting": "SIRT-1/FOXO1; immunofluorescence and Western blot, compared to gp100-activated cells", "result": "increase in accumulation and expression"}, {"measurement": "FOXO1 phosphorylation", "setting": "SIRT-1/FOXO1; total lysate", "result": "significant reduction"}, {"measurement": "FOXO1-regulated memory genes (Cd62l, Klf2, Tcf7, Ccr7)", "setting": "pMel-1 CD8 T cells [2]", "result": "upregulated"}, {"measurement": "expression of Acot1 and Cpt1α", "setting": "pMel-1 CD8 T cells [2]", "result": "significantly higher"}]}]}
